Laboratory results reported in PubChem BioAssay (NCI).
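96-well plates; 48 h exposure; 5 concentrations. Endpoints by linear interpolation between flanking doses. Not reached: highest tested concentration assigned. GI50 is the concentration that inhibits growth by half. TGI denotes the concentration required for complete inhibition of growth.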

How the values were obtained:
Assay in all cases: NCI anticancer screen, dose series, 48 h
NCI-H23 lung = system: NCI-H23 lung
SK-MEL-2 melanoma = system: SK-MEL-2 melanoma
U251 CNS = system: U251 CNS
HT29 colon = system: HT29 colon
LOX IMVI melanoma = system: LOX IMVI melanoma
MOLT-4 leukemia = system: MOLT-4 leukemia
MDA-MB-231 breast = system: MDA-MB-231 breast
T-47D breast = system: T-47D breast
RXF 393 renal = system: RXF 393 renal
OVCAR-8 ovarian = system: OVCAR-8 ovarian
HOP-62 NSCLC = system: HOP-62 NSCLC
OVCAR-4 ovarian = system: OVCAR-4 ovarian
A498 renal = system: A498 renal
SF-295 CNS = system: SF-295 CNS
NCI-H460 lung = system: NCI-H460 lung
UO-31 renal = system: UO-31 renal
COLO 205 colon = system: COLO 205 colon
SN12C renal = system: SN12C renal
M14 melanoma = system: M14 melanoma
TK-10 renal = system: TK-10 renal
IGROV1 ovarian = system: IGROV1 ovarian
EKVX NSCLC = system: EKVX NSCLC
BT-549 breast = system: BT-549 breast
SK-MEL-28 melanoma = system: SK-MEL-28 melanoma
HS 578T breast = system: HS 578T breast
NCI-H226 lung = system: NCI-H226 lung
MCF7 breast = system: MCF7 breast
SNB-75 CNS = system: SNB-75 CNS
UACC-257 melanoma = system: UACC-257 melanoma
MALME-3M melanoma = system: MALME-3M melanoma
ACHN renal = system: ACHN renal
OVCAR-5 ovarian = system: OVCAR-5 ovarian
DU-145 prostate = system: DU-145 prostate
A549 NSCLC = system: A549 NSCLC
MDA-MB-435 = system: MDA-MB-435
HOP-92 NSCLC = system: HOP-92 NSCLC
UACC-62 melanoma = system: UACC-62 melanoma
HCT-15 colon = system: HCT-15 colon
SF-268 CNS = system: SF-268 CNS
CAKI-1 renal = system: CAKI-1 renal
HCT-116 colon = system: HCT-116 colon
HL-60(TB) leukemia = system: HL-60(TB) leukemia
HCC-2998 colon = system: HCC-2998 colon
PC-3 prostate = system: PC-3 prostate
NCI/ADR-RES ovarian = system: NCI/ADR-RES ovarian
SNB-19 CNS = system: SNB-19 CNS
K-562 leukemia = system: K-562 leukemia
SR leukemia = system: SR leukemia
SK-MEL-5 melanoma = system: SK-MEL-5 melanoma
KM12 colon = system: KM12 colon
NCI-H522 lung = system: NCI-H522 lung
SW-620 colon = system: SW-620 colon
CCRF-CEM leukemia = system: CCRF-CEM leukemia
OVCAR-3 ovarian = system: OVCAR-3 ovarian
RPMI-8226 leukemia = system: RPMI-8226 leukemia
SF-539 CNS = system: SF-539 CNS
SK-OV-3 ovarian = system: SK-OV-3 ovarian

With `Cn1cc(-c2nn3cc(-c4ccncc4)nc3s2)c2cc(Cl)ccc21` the GI50 (NCI-H23 lung) was 5.38 µM, the TGI (NCI-H23 lung) was 25.4 µM and the GI50 (SK-MEL-2 melanoma) was 5.41 µM. The TGI (SK-MEL-2 melanoma) was 14 µM, the GI50 (U251 CNS) was 9.15 µM and the TGI (U251 CNS) was 45.4 µM. For the same compound, the GI50 (HT29 colon) was 2410 nM, the TGI (HT29 colon) was 7.31 µM and the GI50 (LOX IMVI melanoma) was 2640 nM. It also gave a TGI (LOX IMVI melanoma) of 9.26 µM, a GI50 (MOLT-4 leukemia) of 2100 nM and a TGI (MOLT-4 leukemia) of 5.23 µM. It also gave a GI50 (MDA-MB-231 breast) of 1580 nM, a TGI (MDA-MB-231 breast) of 3.24 µM and a GI50 (T-47D breast) of 3.3 µM. It also gave a TGI (T-47D breast) of 18.6 µM, a GI50 (RXF 393 renal) of 3.37 µM and a TGI (RXF 393 renal) of 9.85 µM. It also gave a GI50 (OVCAR-8 ovarian) of 2360 nM, a TGI (OVCAR-8 ovarian) of 7.7 µM and a GI50 (HOP-62 NSCLC) of 4.4 µM. The TGI (HOP-62 NSCLC) was > 27.8 µM, the GI50 (OVCAR-4 ovarian) was 5.03 µM and the TGI (OVCAR-4 ovarian) was 13.6 µM. The GI50 (A498 renal) was 9.38 µM, the TGI (A498 renal) was 23.7 µM and the GI50 (SF-295 CNS) was 2980 nM. For the same compound, the TGI (SF-295 CNS) was 8.52 µM, the GI50 (NCI-H460 lung) was 4.6 µM and the TGI (NCI-H460 lung) was 17.5 µM. For the same compound, the GI50 (UO-31 renal) was 4.03 µM, the TGI (UO-31 renal) was 22.6 µM and the GI50 (COLO 205 colon) was 3.39 µM. For the same compound, the TGI (COLO 205 colon) was 9.2 µM, the GI50 (SN12C renal) was 3.72 µM and the TGI (SN12C renal) was 11.2 µM. It also gave a GI50 (M14 melanoma) of 1600 nM, a TGI (M14 melanoma) of 3.14 µM and a GI50 (TK-10 renal) of 14.4 µM. For the same compound, the TGI (TK-10 renal) was 30.9 µM, the GI50 (IGROV1 ovarian) was 2120 nM and the TGI (IGROV1 ovarian) was 17.2 µM. It also gave a GI50 (EKVX NSCLC) of 2300 nM, a TGI (EKVX NSCLC) of 8.54 µM and a GI50 (BT-549 breast) of 3.39 µM. The TGI (BT-549 breast) was 13.3 µM, the GI50 (SK-MEL-28 melanoma) was 2000 nM and the TGI (SK-MEL-28 melanoma) was 3.77 µM. For the same compound, the GI50 (HS 578T breast) was 4.73 µM, the TGI (HS 578T breast) was 27.2 µM and the GI50 (NCI-H226 lung) was 4.86 µM. It also gave a TGI (NCI-H226 lung) of 26.1 µM, a GI50 (MCF7 breast) of 1230 nM and a TGI (MCF7 breast) of 3.34 µM. For the same compound, the GI50 (SNB-75 CNS) was 6.42 µM, the TGI (SNB-75 CNS) was 24.2 µM and the GI50 (UACC-257 melanoma) was 8.58 µM. For the same compound, the TGI (UACC-257 melanoma) was 25.2 µM, the GI50 (MALME-3M melanoma) was 3.16 µM and the TGI (MALME-3M melanoma) was 18.3 µM. The GI50 (ACHN renal) was 4.78 µM, the TGI (ACHN renal) was 25.3 µM and the GI50 (OVCAR-5 ovarian) was 1860 nM. The TGI (OVCAR-5 ovarian) was 3.85 µM, the GI50 (DU-145 prostate) was 6.23 µM and the TGI (DU-145 prostate) was 17.4 µM. It also gave a GI50 (A549 NSCLC) of 11.2 µM, a TGI (A549 NSCLC) of 51.7 µM and a GI50 (MDA-MB-435) of 2840 nM. For the same compound, the TGI (MDA-MB-435) was 8.7 µM, the GI50 (HOP-92 NSCLC) was 1610 nM and the TGI (HOP-92 NSCLC) was 5.3 µM. The GI50 (UACC-62 melanoma) was 11.4 µM, the TGI (UACC-62 melanoma) was 31.7 µM and the GI50 (HCT-15 colon) was 1830 nM. It also gave a TGI (HCT-15 colon) of 3.78 µM, a GI50 (SF-268 CNS) of 6.32 µM and a TGI (SF-268 CNS) of 24.4 µM. The GI50 (CAKI-1 renal) was 8.31 µM, the TGI (CAKI-1 renal) was 28.6 µM and the GI50 (HCT-116 colon) was 1760 nM. The TGI (HCT-116 colon) was 3.3 µM, the GI50 (HL-60(TB) leukemia) was 1540 nM and the TGI (HL-60(TB) leukemia) was 3.26 µM. It also gave a GI50 (HCC-2998 colon) of 3.64 µM, a TGI (HCC-2998 colon) of 10.1 µM and a GI50 (PC-3 prostate) of 2480 nM. It also gave a TGI (PC-3 prostate) of 7.82 µM, a GI50 (NCI/ADR-RES ovarian) of 2700 nM and a TGI (NCI/ADR-RES ovarian) of 8.21 µM. The GI50 (SNB-19 CNS) was 7.98 µM, the TGI (SNB-19 CNS) was 32.7 µM and the GI50 (K-562 leukemia) was 2150 nM. The TGI (K-562 leukemia) was 5.3 µM, the GI50 (SR leukemia) was 1690 nM and the TGI (SR leukemia) was 4.61 µM. For the same compound, the GI50 (SK-MEL-5 melanoma) was 3.02 µM, the TGI (SK-MEL-5 melanoma) was 8.25 µM and the GI50 (KM12 colon) was 12.5 µM. For the same compound, the TGI (KM12 colon) was 37.5 µM, the GI50 (NCI-H522 lung) was 2560 nM and the TGI (NCI-H522 lung) was 10.2 µM. The GI50 (SW-620 colon) was 1890 nM, the TGI (SW-620 colon) was 4.27 µM and the GI50 (CCRF-CEM leukemia) was 2060 nM. For the same compound, the TGI (CCRF-CEM leukemia) was 5.4 µM, the GI50 (OVCAR-3 ovarian) was 5.8 µM and the TGI (OVCAR-3 ovarian) was 27.1 µM. For the same compound, the GI50 (RPMI-8226 leukemia) was 2240 nM, the TGI (RPMI-8226 leukemia) was 6.24 µM and the GI50 (SF-539 CNS) was 4.67 µM. The TGI (SF-539 CNS) was 10.2 µM, the GI50 (SK-OV-3 ovarian) was 12.3 µM and the TGI (SK-OV-3 ovarian) was 30.6 µM.
